Assay in all cases: Lysosomal enzyme activity in kidney tissue
Assay type in all cases: in vivo, mice

For one experiment, the system named is α-mannosidase. The text has this:
(§1) Possibly, the lysosomal glycosidases active in the kidneys are involved in the micro-angiopathy accompanying diabetes mellitus. Therefore, the lysosomal glycosidase activities upon administration of brazilin and full extract were examined.
(§2) A number of mice was divided into three groups. Group I, which was used as control group, remained untreated. To the rest of the mice diabetes was induced by administering alloxan. Part of these diabetic mice remained untreated (diabetic control group II); to the rest of the diabetic mice a dose of 100 mg of brazilin per kg body weight was administered daily. After a test period of 10 and 30 days, respectively, kidney tissue was taken from the laboratory animals and the enzyme fraction was determined. In particular, incubation was carried out for 30 min at 37° C., the reaction was stopped by adding 0.05M glycine-NaOH buffer solution (pH 10.4), centrifugation was carried out at 3000 U/min for 10 min, and the amount of p-nitrophenol formed per min and per mg of protein was determined spectrophotometrically at 410 nm at the supernatant.

Another experiment concerns β-galactosidase.
Text: as §1, §2

A further experiment relates to β-glucuronidase.
Text: as §1, §2

With `Oc1ccc2c(c1)OC[C@]1(O)Cc3cc(O)c(O)cc3[C@H]21` [brazilin], the α-mannosidase activity with α-mannosidase (after 10 days, p < 0.001 vs. Group II (8.60), Group I 8.72) was found to be 12.49 ± 1.34; in the experiment with α-mannosidase (after 30 days, p < 0.001 vs. Group II (5.69), Group I 6.57) it was 5.99 ± 0.54. The β-galactosidase activity in the experiment with β-galactosidase (after 10 days, p < 0.05 vs. Group II (14.74), Group I 11.53) is reported as 12.33 ± 1.95; with β-galactosidase (after 30 days, p < 0.001 vs. Group II (7.39), Group I 8.90), 10.28 ± 0.55. In addition, the β-glucuronidase activity came to 4.02 ± 0.65 in the experiment with β-glucuronidase (after 10 days, p < 0.025 vs. Group II (3.33), Group I 4.82) and 2.49 ± 0.25 in the experiment with β-glucuronidase (after 30 days, p < 0.05 vs. Group II (2.31), Group I 2.26).

The values are drawn from patent US4918099A, “Drug, preparation and use thereof” (priority 1985, dated 1990).
